Here are results for 12 compounds from patent US12162858B2, “Quinoline derivatives as inhibitors of AXL/MER RTK and CSF1R” (QURIENT CO., LTD., priority 2018, dated 2024).

Assay [1] concerns the target T1, CSF1R (Homo sapiens, UniProt P07333). As to the kind of experiment: Cellular CSF1R inhibition ELISA (p-CSF1R, M-CSF-induced) using THP-1 cells. The assay is classed as cell-based. Set-up: THP-1 cells act as a model for human monocytes; endogenous in cells; host or cells: THP-1. The method in brief:
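THP-1 cells (2×10^5/well, RPMI/10% FBS) were treated with compound, 10 doses in 3-fold steps, for 24 h at 37 °C in 0.2% DMSO final. They were then stimulated 5 min with human M-CSF (10 ng/ml final) and lysed. p-CSF1R was read by sandwich ELISA (HRP/TMB), with a sigmoidal dose-response fit.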
For orientation: An ELISA detects its analyte on a solid surface through an enzyme-linked reagent.

Assay [2] addresses T1, CSF1R. As to the kind of experiment: KINOMEscan competition binding assay for CSF1R. More on the design: DNA tag for qPCR (not a peptide); host or cells: E. coli/T7 phage or HEK-293. As to conditions: @ 0.1 uM. The method in brief:
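Values are either % inhibition at 0.1 uM, relative to DMSO (100% Ctrl) and a control compound (0% Ctrl), or Kd from an 11-point 3-fold series fitted with Hill slope −1. DNA-tagged kinase binds immobilized ligand beads with compound for 1 h at room temperature, and eluted kinase is measured by qPCR.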

Where [3] appears, read: read-out: CSF1R kinase binding activity, Percent (%) inhibition.
Where [4] appears, read: read-out: CSF1R kinase binding activity, Range.

Usually IC50 stands for the concentration that inhibits the measured activity by half. Read a high IC50 as lower potency.

The structures appear in SMILES notation. Read-outs that look alike come from different tables or passages of the source.

T1 sequence (P07333 20-972): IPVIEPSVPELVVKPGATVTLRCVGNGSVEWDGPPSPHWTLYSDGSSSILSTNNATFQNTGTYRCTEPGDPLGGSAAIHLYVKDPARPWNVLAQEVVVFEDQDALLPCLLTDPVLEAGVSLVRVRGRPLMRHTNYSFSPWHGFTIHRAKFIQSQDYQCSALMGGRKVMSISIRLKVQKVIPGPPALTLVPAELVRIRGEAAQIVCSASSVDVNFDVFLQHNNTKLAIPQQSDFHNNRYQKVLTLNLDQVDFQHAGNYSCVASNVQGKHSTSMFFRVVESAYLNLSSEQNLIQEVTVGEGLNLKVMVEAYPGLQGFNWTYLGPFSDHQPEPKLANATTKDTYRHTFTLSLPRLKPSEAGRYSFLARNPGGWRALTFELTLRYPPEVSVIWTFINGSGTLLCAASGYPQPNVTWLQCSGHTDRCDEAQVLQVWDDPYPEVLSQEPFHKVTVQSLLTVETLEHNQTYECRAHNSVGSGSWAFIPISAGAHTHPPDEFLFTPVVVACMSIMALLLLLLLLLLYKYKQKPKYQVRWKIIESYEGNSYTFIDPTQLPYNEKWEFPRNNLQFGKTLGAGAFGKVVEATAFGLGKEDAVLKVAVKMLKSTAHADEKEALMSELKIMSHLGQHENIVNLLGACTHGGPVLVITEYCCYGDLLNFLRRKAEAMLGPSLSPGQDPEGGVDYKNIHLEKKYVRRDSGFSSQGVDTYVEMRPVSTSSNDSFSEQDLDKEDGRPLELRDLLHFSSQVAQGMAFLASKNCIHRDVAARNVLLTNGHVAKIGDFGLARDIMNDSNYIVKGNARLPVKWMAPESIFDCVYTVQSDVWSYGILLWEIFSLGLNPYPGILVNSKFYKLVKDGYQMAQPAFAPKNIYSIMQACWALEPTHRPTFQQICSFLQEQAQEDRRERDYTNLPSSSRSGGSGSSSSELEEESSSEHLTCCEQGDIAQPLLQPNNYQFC

Take `CNCCn1cc(OCC(F)(F)F)c(C(=O)Nc2ccc(Oc3ccnc4cc(OC)c(OC)cc34)cc2F)n1` [Compound 154]: the IC50 in assay [1] was no less than 1000 nM. Further, the figures for the inhibition at 0.1 µM in assay [2] (setting [3]) and in assay [2] (setting [4]) were 47% and less than 50%, respectively.

As for `CNCCn1cc(OCC(F)(F)F)c(C(=O)Nc2ccc(Oc3ccnc4cc(OC)c(OC)cc34)c(F)c2)n1` [Compound 155], the IC50 in assay [1] is no less than 1000 nM. For the same compound, the inhibition at 0.1 µM in assay [2] (setting [3]) is 22%; in assay [2] (setting [4]), less than 50%.

`CNCCn1cc(OCC(F)(F)F)c(C(=O)Nc2ccc(Oc3ccnc4cc(OC)c(OC)cc34)c(C)c2)n1` [Compound 156] came in with an IC50 in assay [1] of no less than 1000 nM. Besides, the inhibition at 0.1 µM in assay [2] (setting [3]) is 49%; in assay [2] (setting [4]), less than 50%.

The compound `COc1cc2nccc(Oc3ccc(NC(=O)c4nn(C5CCN(C)C5)cc4OCC(F)(F)F)nn3)c2cc1OC` (stereo not drawn) [Compound 157] yielded an IC50 in assay [1] of 500 to 1000 nM. The inhibition at 0.1 µM in assay [2] (setting [3]) was 81%; in assay [2] (setting [4]), no less than 80%.

On to `CCCn1cc(NCCC(F)(F)F)c(C(=O)Nc2ccc(Oc3ccnc4cc(OC)c(OC)cc34)cn2)n1` [Compound 158], for which the IC50 in assay [1] was less than 500 nM. In addition, the inhibition at 0.1 µM in assay [2] (setting [3]) is 91%; in assay [2] (setting [4]) it was no less than 80%.

The compound `CCCn1cc(OCC2CNC2)c(C(=O)Nc2ccc(Oc3ccnc4cc(OC)c(OC)cc34)cn2)n1` [Compound 159] came in with an IC50 in assay [1] of no less than 1000 nM. The inhibition at 0.1 µM in assay [2] (setting [3]) is 64%; in assay [2] (setting [4]), 50 to 80%.

`CNCCOc1cn(C2CC2)nc1C(=O)Nc1ccc(Oc2ccnc3cc(OC)c(OC)cc23)nn1` [Compound 160] showed an IC50 in assay [1] of no less than 1000 nM. For the same compound, the inhibition at 0.1 µM in assay [2] (setting [3]) is 25%; in assay [2] (setting [4]), less than 50%.

In assay [1], `COc1cc2nccc(Oc3ccc(NC(=O)c4nn(C5CC5)cc4OCC4COC4)nn3)c2cc1OC` [Compound 161] yielded an IC50 of no less than 1000 nM. The figures for the inhibition at 0.1 µM in assay [2] (setting [3]) and in assay [2] (setting [4]) were 14% and less than 50%, respectively.

`COc1cc2nccc(Oc3ccc(NC(=O)c4nn(C5CC5)cc4OCC(F)F)nn3)c2cc1OC` [Compound 162] yielded an IC50 in assay [1] of less than 500 nM. The results for the inhibition at 0.1 µM in assay [2] (setting [3]) and in assay [2] (setting [4]) were 91% and no less than 80%, respectively.

Compound `COc1cc2nccc(Oc3ccc(NC(=O)c4nn(CC(C)O)cc4OCC4CCC4)nc3)c2cc1OC` (stereo not drawn) [Compound 163] showed an IC50 in assay [1] of 500 to 1000 nM. Moreover, the values for the inhibition at 0.1 µM in assay [2] (setting [3]) and in assay [2] (setting [4]) were 93% and no less than 80%, respectively.

In assay [1], `CCCn1cc(OCC2CCOCC2)c(C(=O)Nc2ccc(Oc3ccnc4cc(OC)c(OC)cc34)cn2)n1` [Compound 164] registered an IC50 of no less than 1000 nM. Also, the inhibition at 0.1 µM was 73% in assay [2] (setting [3]) and 50 to 80% in assay [2] (setting [4]).

Compound `CCCn1cc(OCCN(C)C)c(C(=O)Nc2ccc(Oc3ccnc4cc(OC)c(OC)cc34)c(F)c2)n1` [Compound 165] registered an IC50 in assay [1] of no less than 1000 nM. The inhibition at 0.1 µM in assay [2] (setting [3]) is 5%; in assay [2] (setting [4]) it was less than 50%.
